US20210290557A1, “MULTI-PARTICULATE PHARMACEUTICAL COMPOSITION, IMMEDIATE RELEASE PELLETS, SUSTAINED RELEASE PELLETS, ENTERIC RELEASE PELLETS AND USE THEREOF” (Industrial Technology Research Institute, priority 2019, published 2021)

Assay: Solubility test for sobrerol in dissolution medium with different pH and purified water
Type: physicochemical
Experimental: 1. The Preparation of Dissolution Medium with Different pH Levels:
(1) Dissolution Medium with pH 2.5
7.164 g of disodium hydrogen phosphate (containing 12 molecules of water) was added to a 100 mL volumetric flask, then purified water was added to quantify to 100 mL, and then stirred using a stir bar. After the disodium hydrogen phosphate (containing 12 molecules of water) in the volumetric flask was completely dissolved, a 0.2 M disodium hydrogen phosphate solution was obtained.
19.213 g of anhydrous citric acid was assed to a 1 L volumetric flask, then purified water water was added to quantify to 1 L, and then stirred using a stir bar. After the anhydrous citric acid in the volumetric flask was completely dissolved, a 0.1 M citric acid solution was obtained.
Next, According to the list of formulas of McIlvaine buffer with different pH values, 0.2 M […] solution and 0.1 M citric acid solution were mixed at a ratio of 1.71:18.29 to obtain a dissolution medium with pH 2.5.
(2) Dissolution Medium with pH 4.5
15.6 g of Sodium dihydrogen phosphate (containing 2 molecules of water) was added to a 1 L volumetric flask, then purified water water was added to quantify to 1 L, and then stirred using a stir bar. After the sodium dihydrogen phosphate (containing 2 molecules of water) in the volumetric flask was completely dissolved, a phosphate dissolution medium with pH 4.5 was obtained.
(3) Dissolution Medium with pH 6.8
7.8 g of Sodium dihydrogen phosphate (containing 2 molecules of water) and 0.94 g of sodium hydroxide were added to a 1 L volumetric flask, then purified water water was added to quantify to 1 L, and then stirred using a stir bar. […]
250 mL of dissolution medium prepared above or purified water water was added to a beaker and a stir bar was added for stirring. […] Sobrerol was continuously added until sobrerol cannot be completely dissolved within 30 minutes, and then the total amount of sobrerol added was counted, that was, the actual solubility limit of sobrerol.

Structure (SMILES): CC1=CCC(C(C)(C)O)CC1O (stereo not drawn) [sobrerol]
- soluble amount of sobrerol (actual solubility limit) (250 mL dissolution medium with pH 2.5, 4.5, 6.8 or purified water, all media): > 900 mg
- effect of pH on solubility of sobrerol (dissolution medium with different pH and purified water): not affected by pH
- solubility classification according to FDA Biopharmaceutics Classification System guideline (soluble amount compared with the daily total of 900 mg): meets the specifications for high solubility drugs
